This note sets out measurements from patent US20230105212A1, “BIPHENYL DERIVATIVE INHIBITOR, PREPARATION METHOD THEREFOR AND USE THEREOF” (SHANGHAI HANSOH BIOMEDICAL CO., LTD., priority 2020, published 2023).

Data set [1] can be described thus: Pharmacokinetic test of plasma and tumor of tumor-bearing nude mice. The note with it: tumor-bearing nude mice, p.o. 30 mg/kg; for Kp: female, mouse, tumor/plasma, po, read-out: Tumor plasma ratio. The data set is classed as in vivo. Here is the method:
Test Embodiment 7. Pharmacokinetic Test of Plasma and Tumor of Tumor-Bearing Nude Mice
Taking tumor-bearing nude mice as the test animals, the pharmacokinetic behavior in the plasma and tumor of tumor-bearing nude mice of the following compound embodiments was studied when orally administered at a dose of 30 mg/kg.
Tumor-bearing nude mouse 21/embodiment, female, Shanghai B&K Laboratory Animal Co., Ltd., animal production license number (SCXK (Shanghai) 2013-0006 No. 311620400001794).
0.5% HPMC (1% Tween 80), dissolved by sonication, to prepare a clear solution or a homogeneous suspension.
Tumor-bearing nude mice, female; p.o. after overnight fasting, respectively, at a dose of 30 mg/kg, administered in a volume of 10 mL/kg.
Before and after administration of tumor-bearing nude mice, at 0, 1, 2, 4, 6, 8, 16 and 24 hours, 0.1 mL of blood was collected from the orbit, placed in an EDTA-K2 test tube, and centrifuged at 6000 rpm at 4° C. for 6 min to separate the plasma. After dissection, the tumor tissue was weighed and stored at −80° C.
1) Tumor tissue was homogenized with methanol and water at a ratio of 1:3, and then centrifuged to get the supernatant. 40 μL of tumor homogenate supernatant and 40 μL of plasma sample were added to 160 μL of acetonitrile for precipitation, and after mixing, centrifuged at 3500×g for 5 to 20 minutes.
2) 100 μL of the supernatant solution after treatment was taken for LC/MS/MS to analyze the concentration of the compounds to be tested.
2.7 Liquid Phase Analysis • Liquid phase condition: Shimadzu LC-20AD pump • MS conditions: AB Sciex API 4000 Mass Spectrometer • Chromatographic column: phenomenex Gemiu 5 μm C18 50×4.6 mm • Mobile phase: A solution was aqueous 0.1% formic acid solution, B solution was acetonitrile • Flow rate: 0.8 mL/min • Elution time: 0 to 4.0 minutes, the eluent was as follows:
The main parameters of pharmacokinetics were calculated with WinNonlin 8.2, and the results of the tumor-bearing nude mice pharmacokinetic experiments were shown in the following table: […]

The nature of data set [2]: Plasma protein binding rate (equilibrium dialysis). The note with it: mouse plasma, equilibrium dialysis 37° C. 5 hours. The data set is classed as in vitro ADME. Here is the method: Test Embodiment 8. Plasma Protein Binding Rate Experiment
The purpose of this experimental method was to detect the plasma protein binding of the embodiment compounds in plasma.
The frozen plasma was thawed at room temperature or in a water bath at 37° C., then centrifuged at 3500 rpm for 5 min, and the supernatant was taken.
Preparation of compound working solution: Stock solutions were diluted with DMSO to a final concentration of 1 mM.
2.5 μL of compound working solution was added to 497.5 μL of blank plasma to a final concentration of 5 μM, shaked and mixed well.
1) The equilibrium dialysis device was prepared, and the detection membrane device was put into the equilibrium dialysis 96-well plate;
2) 200 μL of the prepared plasma solution was added to the membrane, n=2;
3) another 5 μL of plasma solution was taken, diluted 10 times with 45 μL of blank plasma of the same species, and 200 μL of acetonitrile termination solution containing internal standard was added, and stored in a −20° C. refrigerator;
4) 350 μL of dialysate (100 mM phosphate buffer) was added outside the membrane;
5) the dialysis plate was sealed and incubated in a 37° C. water bath for 5 hours;
6) after dialysis, 5 μL was taken out from the sample hole in the membrane, and diluted 10 times with 45 μL of blank plasma of the same species; 50 μL of dialysate was taken out from the sample hole outside the membrane, and 200 μL of acetonitrile termination solution containing internal standard was added;
7) the supernatant was taken after sample centrifugation;
Background: Equilibrium dialysis compares concentrations on both sides of a semipermeable membrane.

Data set [3] deals with NFAT-luc2/PD1 Jurkat cells. As to the kind of experiment: In vitro cytotoxicity on NFAT-luc2/PD1 Jurkat cells (CellTiter-Glo). Format: cell-based. The note with it: 72 hours; for IC50: Homo sapiens, Jurkat. Here is the method: (§1) Test Embodiment 5. In Vitro Cytotoxicity of the Compounds of the Present Disclosure on NFAT-Luc2/PD1 Jurkat Cells and MC38-hPDL1 Cells
(§2) Experimental purpose: To test the in vitro cytotoxicity of compounds on NFAT-luc2/PD1 Jurkat cells and MC38-hPDL1 cells.
(§3) When the cells were cultured to an appropriate degree of confluency, the cells were collected, and the cells was adjusted in an appropriate cell concentration by complete medium, then the cell suspension was plated in a 96-well plate, 90 μL per well, and put in a 37° C., 5% CO2 incubator overnight; compound solutions of different concentrations were prepared by DMSO and medium, and a vehicle control was set; compound solutions were added to a 96-well plate, 10 μL per well, and put in a 37° C., 5% CO2 incubator and cultured for 72 hours. After that, CellTiter-Glo solution was added, the mixture was shaken and mixed evenly, incubated in the dark for 10 minutes, and a BioTek Synergy H1 microplate reader was used for reading.
(§4) Luminescence signal value was used to calculate the inhibition rate, and the concentration and inhibition rate were fitted by nonlinear regression curve using Graphpad Prism software to obtain IC50 values, as shown in the following table: […]
A general note: ATP-based viability assays read luminescence as a measure of living cells.

Another data set relates to MC38-hPDL1 cells. As to the kind of experiment: In vitro cytotoxicity on MC38-hPDL1 cells (CellTiter-Glo). The note with it: for MC38-hPDL1 inhibition rate (%): 72 hours; for IC50: Mus musculus, MC38-hPD-L1, 72 hours. The data set is classed as cell-based, mouse. Here is the method: as §1, §2, §3, §4

On to `COc1nc(-c2cccc(-c3cccc(NC(=O)c4nc5c(n4C)CCN(C)C5)c3Cl)c2Cl)ccc1CNC(CO)CO` [Embodiment 174, N-(2,2′-Dichloro-3′-(5-(((1,3-dihydroxypropan-2-yl)amino)methyl)-6-methoxypyridin-2-yl)-[1,1′-biphenyl]-3-yl)-1,5-dimethyl-4,5,6,7-tetrahydro-1H-imidazo[4,5-c]pyridine-2-carboxamide], for which, in data set [1], the Kp was 2.4, the “Drug concentration in plasma” value was 291 ng/mL and the “Drug concentration in tumor” value came to 697 ng/mL.

With `COc1nc(-c2cccc(-c3cccc(NC(=O)c4nc5c(n4C)CCN(C)C5)c3Cl)c2Cl)ccc1CN1CC(O)(CO)C1` [Embodiment 173, N-(2,2′-Dichloro-3′-(5-((3-hydroxy-3-(hydroxymethyl)azetidin-1-yl)methyl)-6-methoxypyridin-2-yl)-[1,1-biphenyl]-3-yl)-1,5-dimethyl-4,5,6,7-tetrahydro-1H-imidazo[4,5-c]pyridine-2-carboxamide], in data set [1], the Kp is 2.2, the “Drug concentration in plasma” value was determined as 291 ng/mL and the “Drug concentration in tumor” value was 628 ng/mL.

In the case of `COc1nc(-c2cccc(-c3cccc(NC(=O)c4nc5c(n4C)CCN(C)C5)c3Cl)c2Cl)ccc1CN[C@H]1CCOC[C@@H]1O` (relative stereo) [Embodiment 175, N-(2,2′-Dichloro-3′-(5-((((3,4-trans)-3-hydroxytetrahydro-2H-pyran-4-yl)amino)methyl)-6-methoxypyridin-2-yl)-[1,1′-biphenyl]-3-yl)-1,5-dimethyl-4,5,6,7-tetrahydro-1H-imidazo[4,5-c]pyridine-2-carboxamide], in data set [1], the Kp is 2.1, the “Drug concentration in plasma” value is 485 ng/mL and the “Drug concentration in tumor” value was determined as 1009 ng/mL. The compound further registered a fraction unbound at 5 h, 5 μM in data set [2] of 0.0052.

`CCC(=O)N1CC2(CN(Cc3ccc(-c4cccc(-c5cccc(NC(=O)c6nc7c(n6C)CCN(C)C7)c5Cl)c4Cl)nc3OC)C2)C1` [Embodiment 188, N-(2,2′-Dichloro-3′-(6-methoxy-5-((6-propionyl-2,6-diazaspiro[3.3]heptan-2-yl)methyl)pyridin-2-yl)-[1,1′-biphenyl]-3-yl)-1,5-dimethyl-4,5,6,7-tetrahydro-1H-imidazo[4,5-c]pyridine-2-carboxamide]: the fraction unbound at 5 h, 5 μM in data set [2] came out at 0.0052.

For `COc1nc(-c2cccc(-c3cccc(NC(=O)c4nc5c(n4C)CCN(C)C5)c3Cl)c2Cl)ccc1CN1CC(C(=O)N(C)C)C1` [Embodiment 183, N-(2,2′-Dichloro-3′-(5-((3-(dimethylcarbamoyl)azetidin-1-yl)methyl)-6-methoxypyridin-2-yl)-[1,1′-biphenyl]-3-yl)-1,5-dimethyl-4,5,6,7-tetrahydro-1H-imidazo[4,5-c]pyridine-2-carboxamide], in data set [3], the “Jurkat-PD1 inhibition rate (%)” value amounted to 71% and the IC50 is 5.82 µM. Also, in data set [1], the Kp was 2.3, the “Drug concentration in plasma” value is recorded as 309 ng/mL and the “Drug concentration in tumor” value is given as 697 ng/mL. Further, in the data set on MC38-hPDL1 cells, the “MC38-hPDL1 inhibition rate (%)” value worked out at 14% and the IC50 is more than 10 µM.

Take `COc1nc(-c2cccc(-c3cccc(NC(=O)c4nc5c(n4C)CCN(C)C5)c3Cl)c2Cl)ccc1CN1CC2(COC2)C1` [Embodiment 124, N-(3′-(5-((2-Oxa-6-azaspiro[3.3]heptan-6-yl)methyl)-6-methoxypyridin-2-yl)-2,2′-dichloro-[1,1′-biphenyl]-3-yl)-1,5-dimethyl-4,5,6,7-tetrahydro-1H-imidazo[4,5-c]pyridine-2-carboxamide]: the fraction unbound at 5 h, 5 μM in data set [2] came out at 0.0057.

Take `COc1nc(-c2cccc(-c3cccc(NC(=O)c4nc5c(n4C)CCN(C)C5)c3Cl)c2Cl)ccc1CN1CC2(C1)CN(C(=O)C(C)C)C2` [Embodiment 186, N-(2,2′-Dichloro-3′-(5-((6-isobutyryl-2,6-diazaspiro[3.3]heptan-2-yl)methyl)-6-methoxypyridin-2-yl)-[1,1′-biphenyl]-3-yl)-1,5-dimethyl-4,5,6,7-tetrahydro-1H-imidazo[4,5-c]pyridine-2-carboxamide]: in data set [2], the fraction unbound at 5 h, 5 μM stood at 0.003.

As to `COc1nc(-c2cccc(-c3cccc(NC(=O)c4nc5c(n4C)CCN(C)C5)c3Cl)c2Cl)ncc1CN1CC(CO)C1` [Embodiment 223, N-(2,2′-Dichloro-3′-(5-((3-(hydroxymethyl)azetidin-1-yl)methyl)-4-methoxypyrimidin-2-yl)-[1,1′-biphenyl]-3-yl)-1,5-dimethyl-4,5,6,7-tetrahydro-1H-imidazo[4,5-c]pyridine-2-carboxamide], in data set [3], the “Jurkat-PD1 inhibition rate (%)” value is given as 77% and the IC50 is 4.77 µM. In addition, in data set [1], the Kp turned out to be 3.5, the “Drug concentration in plasma” value amounted to 432 ng/mL and the “Drug concentration in tumor” value stood at 1504 ng/mL. In addition, in the data set with MC38-hPDL1 cells, the “MC38-hPDL1 inhibition rate (%)” value came out at 2% and the IC50 was more than 10 µM.

Consider `COc1nc(-c2cccc(-c3cccc(NC(=O)c4nc5c(n4C)CCN(C)C5)c3Cl)c2Cl)ccc1CN1CC(NC(C)=O)C1` [Embodiment 180, N-(3′-(5-((3-Acetylaminoazetidin-1-yl)methyl)-6-methoxypyridin-2-yl)-2,2′-dichloro-[1,1′-biphenyl]-3-yl)-1,5-dimethyl-4,5,6,7-tetrahydro-1H-imidazo[4,5-c]pyridine-2-carboxamide], for which the fraction unbound at 5 h, 5 μM in data set [2] amounted to 0.0044.

As to `COc1nc(-c2cccc(-c3cccc(NC(=O)c4nc5c(n4C)CCN(C)C5)c3Cl)c2Cl)ncc1CN1CC(CNC(C)=O)C1` [Embodiment 225, N-(3′-(5-((3-(Acetylaminomethyl)azetidin-1-yl)methyl)-4-methoxypyrimidin-2-yl)-2,2′-dichloro-[1,1′-biphenyl]-3-yl)-1,5-dimethyl-4,5,6,7-tetrahydro-1H-imidazo[4,5-c]pyridine-2-carboxamide], in data set [3], the “Jurkat-PD1 inhibition rate (%)” value is given as 51% and the IC50 is 9.07 µM. Besides, in the data set with MC38-hPDL1 cells, the “MC38-hPDL1 inhibition rate (%)” value came to 1% and the IC50 was more than 10 µM.

`COc1nc(-c2cccc(-c3cccc(NC(=O)c4nc5c(n4C)CCN(C)C5)c3Cl)c2Cl)cnc1CN1CC(NC(C)=O)C1` [Embodiment 218, N-(3′-(5-((3-Acetylaminoazetidin-1-yl)methyl)-6-methoxypyrazin-2-yl)-2,2′-dichloro-[1,1′-biphenyl]-3-yl)-1,5-dimethyl-4,5,6,7-tetrahydro-1H-imidazo[4,5-c]pyridine-2-carboxamide]: in data set [3], the “Jurkat-PD1 inhibition rate (%)” value amounted to 85% and the IC50 was determined as 4.32 µM. For the same compound, in the data set with MC38-hPDL1 cells, the “MC38-hPDL1 inhibition rate (%)” value came out at 51% and the IC50 turned out to be 9.35 µM.

For orientation: fraction unbound means the share of the substance not bound to proteins or other matrix. Higher therefore signals weak binding. Usually IC50 stands for the concentration at which inhibition is half-maximal.
